Source: PubChem BioAssay (NCI)
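Dose response: 5 concentrations. Exposure: 48 h. Format: 96-well plates. Endpoint: linear interpolation; highest concentration if not reached. Abbreviation: GI50, concentration required for 50% inhibition of growth. At the TGI there is no net growth.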

What follows are compounds tested on SR leukemia (assay: growth of human tumour cells (NCI), 48 h).

Structure (SMILES) | TGI [µM] | GI50 [nM]
COc1ccc(NC(=O)/C(Cc2cc(=O)oc3cc(O)ccc23)=N\NC(C)(C)C)c(OC)c1 | > 100 | –
CCOc1ccc(NC(=O)C(=O)CC(=O)c2c(C)n([O-])c3ccccc3[n+]2=O)cc1 | > 100 | –
CCC(C)COC(=O)c1ccc(N=Cc2ccc(C=Nc3ccc(C(=O)OCC(C)CC)cc3)cc2)cc1 (stereo not given) | > 100 | –
CN(C)CC1CCCC/C1=N/OC(=O)c1ccc(Cl)cc1 (stereo not given) | > 100 | –
N#CC(C(=O)C(=O)C(C#N)c1ccc(Br)cc1)c1ccc(Br)cc1 (stereo not given) | > 100 | –
Cc1ccc(NC(=O)CCc2cc(C(C)(C)C)nc(=S)[nH]2)cc1C | > 100 | –
Cc1[nH]c2ccccc2c1C(=O)/C=C/c1ccccc1O | > 100 | –
CCC[CH2][Sn]([Cl])([CH2]CCC)[CH2]CCC | 0.596 | 66

The compounds below were run on 786-0 renal (assay: growth of human tumour cells (NCI), 48 h).

Structure (SMILES) | GI50 [nM] | TGI [µM]
CN(C)CC[PH+](c1ccccc1)c1ccccc1.CN(C)CC[PH+](c1ccccc1)c1ccccc1.[Cl-].[Pd+2] | > 100000 | > 100
O=C(c1ccccc1)c1cc2ccccc2o1 | > 100000 | > 100
O=C(Nc1ccncc1)C(=O)c1cn(S(=O)(=O)c2ccc(F)cc2)c2ccccc12 | 4550 | 79.7
C=C(C)[C@@H]1CC[C@]2(C)[C@H](CC=C3[C@@H]4CC(C)(C)CC[C@]4(C(N)=O)CC[C@]32C)[C@@]1(C)CCC#N | 2000 | 4.12
O=C(N[C@@H](c1ccc(Cl)c(Cl)c1)C1CNC1)c1ccc2cnccc2c1 | 67.6 | 2.34
CO/N=C(\COc1ccc2c(c1)oc(=O)c1cc(OC)ccc12)c1ccc(OC)cc1 | > 100000 | > 100
COc1ccc(NC(=O)/C(Cc2cc(=O)oc3cc(O)ccc23)=N\NC(C)(C)C)c(OC)c1 | – | > 100
O=C1/C(=C/c2ccc3c(c2)OCO3)SC2C=Nc3ccccc3N12 (stereo not given) | – | > 100
CCOc1ccc(NC(=O)C(=O)CC(=O)c2c(C)n([O-])c3ccccc3[n+]2=O)cc1 | – | > 100
Cc1cc(Cl)ccc1NC(=O)C(=O)Cc1nc2ccccc2o1 | – | > 100
OCC1OC(c2nc(C3=NCCCN3)cs2)C(O)C1O (stereo not given) | – | > 100
CCC(C)COC(=O)c1ccc(N=Cc2ccc(C=Nc3ccc(C(=O)OCC(C)CC)cc3)cc2)cc1 (stereo not given) | – | > 100
COc1cc(F)ccc1-c1ncnc(Nc2cccc(CS(C)(=N)=O)c2)n1 (stereo not given) | 1180 | > 100
Cc1cc(N(CCC#N)CCC#N)ccc1N=Nc1ccc(C(=O)O)cc1 | – | > 100
[Cl][Hg][c]1cc[c]([Hg][Cl])o1 | 4500 | 15.1
CN(C)CC1CCCC/C1=N/OC(=O)c1ccc(Cl)cc1 (stereo not given) | – | > 100
N#CC(C(=O)C(=O)C(C#N)c1ccc(Br)cc1)c1ccc(Br)cc1 (stereo not given) | – | 27
COc1cccc(C2=NC(C(C)C)CO2)c1 (stereo not given) | – | > 100
CCOC(=O)C(=[N+]=[N-])[Si](C)(C)C | – | > 100

Structure (SMILES) | GI50 [nM] | TGI [µM]
O=C(CC1(O)C(=O)N(Cc2ccccc2)c2ccc(F)cc21)c1ccc(C(=O)NCC2CCC3(CC2)OOC2(CCCCC2)OO3)cc1 (stereo not given) | 180 | 0.344
COc1cc2c3c(n(C)c(=O)c2cc1OC)-c1cc2c(cc1/C3=C\CN)OCO2 | 314 | 17.3
COc1ccc(/C=C2/N=C(c3ccccc3)N(c3c(C)n(C)n(-c4ccccc4)c3=O)C2=O)cc1OC | > 100000 | > 100
CCCc1nc(NC#N)nc(C(=O)Nc2ccccc2)c1CC | – | > 100
O=C(CCc1n[nH]c(=S)o1)Nc1ccccc1C(F)(F)F | – | > 100
CCn1c2ccccc2c2cc(NC(=O)Nc3ccc([N+](=O)[O-])cc3C)ccc21 | 4610 | 84.9
Cc1ccc(NC(=O)CCc2cc(C(C)(C)C)nc(=S)[nH]2)cc1C | – | > 100
Cc1[nH]c2ccccc2c1C(=O)/C=C/c1ccccc1O | – | > 100
O=C(Nc1nc(=S)c2c(ncn2CCOC(=O)c2ccccc2)[nH]1)c1ccccc1 | – | > 100
COc1ccc(CC2NCCc3c2[nH]c2ccccc32)cc1 (stereo not given) | – | > 100
O=C(CSc1nc2ccccc2nc1-c1ccccc1)Nc1ccc(F)cc1 | 49200 | > 100
COc1ccc2c(c1)C(=O)c1c-2c(N2CCN(C(=O)CNCCNCCO)CC2)nc2ccccc12 | 1770 | 3.34
Cc1ccc(/C=C/C(=O)c2sc(-c3nc(C)c(C(=O)/C=C/c4ccc(C)cc4)s3)nc2C)cc1 | – | > 100
Cn1cc(-c2csc(-c3c[nH]c4ccc(F)cc34)n2)c2cnccc21 | 1850 | 3.47
O=C1Nc2ccccc2/C1=N\[O-].O=C1Nc2ccccc2/C1=N\[O-].[Cu+2] | > 100000 | > 100
CCC[CH2][Sn]([Cl])([CH2]CCC)[CH2]CCC | 87 | 0.21
O=c1ccn([C@H]2CSC[C@@H](CO)C2)c(=O)[nH]1 | – | > 100
COc1cc(-n2cc(-c3ccc(F)cc3)[nH]c2=O)cc(OC)c1OC | > 100000 | > 100

The compounds below were run on BT-549 breast (assay: growth of human tumour cells (NCI), 48 h).

Structure (SMILES) | GI50 [nM] | TGI [µM]
CN(C)CC[PH+](c1ccccc1)c1ccccc1.CN(C)CC[PH+](c1ccccc1)c1ccccc1.[Cl-].[Pd+2] | > 100000 | > 100
O=C(c1ccccc1)c1cc2ccccc2o1 | 73000 | > 100
O=C(Nc1ccncc1)C(=O)c1cn(S(=O)(=O)c2ccc(F)cc2)c2ccccc12 | 1580 | 39.9
C=C(C)[C@@H]1CC[C@]2(C)[C@H](CC=C3[C@@H]4CC(C)(C)CC[C@]4(C(N)=O)CC[C@]32C)[C@@]1(C)CCC#N | 2090 | 5.53
O=C(N[C@@H](c1ccc(Cl)c(Cl)c1)C1CNC1)c1ccc2cnccc2c1 | 301 | 1.67
CO/N=C(\COc1ccc2c(c1)oc(=O)c1cc(OC)ccc12)c1ccc(OC)cc1 | > 100000 | > 100
COc1cc(F)ccc1-c1ncnc(Nc2cccc(CS(C)(=N)=O)c2)n1 (stereo not given) | 1070 | > 100
[Cl][Hg][c]1cc[c]([Hg][Cl])o1 | 1990 | 8.67
O=C(CC1(O)C(=O)N(Cc2ccccc2)c2ccc(F)cc21)c1ccc(C(=O)NCC2CCC3(CC2)OOC2(CCCCC2)OO3)cc1 (stereo not given) | 1880 | 4.28
COc1cc2c3c(n(C)c(=O)c2cc1OC)-c1cc2c(cc1/C3=C\CN)OCO2 | – | > 100
CCn1c2ccccc2c2cc(NC(=O)Nc3ccc([N+](=O)[O-])cc3C)ccc21 | 2020 | 6.46
O=C(CSc1nc2ccccc2nc1-c1ccccc1)Nc1ccc(F)cc1 | 24600 | 66.5
COc1ccc2c(c1)C(=O)c1c-2c(N2CCN(C(=O)CNCCNCCO)CC2)nc2ccccc12 | 3670 | 12.6
Cn1cc(-c2csc(-c3c[nH]c4ccc(F)cc34)n2)c2cnccc21 | 1630 | 3.06
O=C1Nc2ccccc2/C1=N\[O-].O=C1Nc2ccccc2/C1=N\[O-].[Cu+2] | > 100000 | > 100
COc1cc(-n2cc(-c3ccc(F)cc3)[nH]c2=O)cc(OC)c1OC | 83400 | > 100

What follows are compounds tested on A549 NSCLC (assay: growth of human tumour cells (NCI), 48 h).

Structure (SMILES) | GI50 [µM] | TGI [µM]
CN(C)CC[PH+](c1ccccc1)c1ccccc1.CN(C)CC[PH+](c1ccccc1)c1ccccc1.[Cl-].[Pd+2] | > 100 | > 100
O=C(c1ccccc1)c1cc2ccccc2o1 | 95 | > 100
O=C(Nc1ccncc1)C(=O)c1cn(S(=O)(=O)c2ccc(F)cc2)c2ccccc12 | 18.5 | > 100
C=C(C)[C@@H]1CC[C@]2(C)[C@H](CC=C3[C@@H]4CC(C)(C)CC[C@]4(C(N)=O)CC[C@]32C)[C@@]1(C)CCC#N | 4.1 | > 100
O=C(N[C@@H](c1ccc(Cl)c(Cl)c1)C1CNC1)c1ccc2cnccc2c1 | 0.417 | 12.5
CO/N=C(\COc1ccc2c(c1)oc(=O)c1cc(OC)ccc12)c1ccc(OC)cc1 | > 100 | > 100
COc1ccc(NC(=O)/C(Cc2cc(=O)oc3cc(O)ccc23)=N\NC(C)(C)C)c(OC)c1 | – | > 100
O=C1/C(=C/c2ccc3c(c2)OCO3)SC2C=Nc3ccccc3N12 (stereo not given) | – | > 100
CCOc1ccc(NC(=O)C(=O)CC(=O)c2c(C)n([O-])c3ccccc3[n+]2=O)cc1 | – | > 100
